Results taken from patent publication US9949475B2, “Composition comprising active ingredient, oil and ionic liquid” (priority 2011, dated 2018).
Converted amounts (≈) assume the structure as drawn. Read-outs that look alike come from different tables or passages of the source.

Assay: Solubility of agrochemical active ingredient in oil comprising ionic liquid
Format: physicochemical
Settings: thermodynamic from solid, 21° C.
Text: Alternatively, the oil, which comprised the ionic liquid, was saturated with the active ingredient and the soluble fraction of active ingredient was quantified by means of HPLC. In the first line of the tables, in each case the weight ratios of oil to IL are given.

solubility (Cetiol B oil comprising ionic liquid, 21 °C, oil or lipid, Oil/IL 60/40 weight ratio, IL N-butyl-N′-methylimidazolium dimethylphosphate, read-out: Solubility of fluxapyroxad with Cetiol ® B as oil): 43.1 mg/mL | solubility (Cetiol B oil comprising ionic liquid, 21 °C, oil or lipid, Oil/IL 60/40 weight ratio, IL N-ethyl-N′-ethylimidazolium propionate, read-out: Solubility of fluxapyroxad with Cetiol ® B as oil): 50.8 mg/mL | solubility (Cetiol B oil comprising ionic liquid, 21 °C, oil or lipid, Oil/IL 60/40 weight ratio, IL N-ethyl-N′-methylimidazolium acetate, read-out: Solubility of fluxapyroxad with Cetiol ® B as oil): 54.9 mg/mL | solubility (Cetiol B oil comprising ionic liquid, 21 °C, oil or lipid, Oil/IL 60/40 weight ratio, IL N-ethyl-N′-methylimidazolium dibutylphosphate, read-out: Solubility of fluxapyroxad with Cetiol ® B as oil): 46 mg/mL | solubility (Cetiol B oil comprising ionic liquid, 21 °C, oil or lipid, Oil/IL 60/40 weight ratio, IL N-ethyl-N′-methylimidazolium heptanoate, read-out: Solubility of fluxapyroxad with Cetiol ® B as oil): 50 mg/mL | solubility (Cetiol B oil comprising ionic liquid, 21 °C, oil or lipid, Oil/IL 60/40 weight ratio, IL N-ethyl-N′-methylimidazolium octanoate, read-out: Solubility of fluxapyroxad with Cetiol ® B as oil): 49.5 mg/mL | solubility (Cetiol B oil comprising ionic liquid, 21 °C, oil or lipid, Oil/IL 60/40 weight ratio, IL N-propyl-N′-propylimidazolium acetate, read-out: Solubility of fluxapyroxad with Cetiol ® B as oil): 49.6 mg/mL | solubility (Cetiol B oil comprising ionic liquid, 21 °C, oil or lipid, Oil/IL 60/40 weight ratio, IL Tetrabutylammonium [2-(2-methoxyethoxy)ethoxy]acetate, read-out: Solubility of fluxapyroxad with Cetiol ® B as oil): 40.8 mg/mL | solubility (Cetiol B oil comprising ionic liquid, 21 °C, oil or lipid, Oil/IL 80/20 weight ratio, IL Cholinium octanoate, read-out: Solubility of fluxapyroxad with Cetiol ® B as oil): 20.8 mg/mL | solubility (Cetiol B oil comprising ionic liquid, 21 °C, oil or lipid, Oil/IL 80/20 weight ratio, IL N-butyl-N′-methylimidazolium dimethylphosphate, read-out: Solubility of fluxapyroxad with Cetiol ® B as oil): 29 mg/mL | solubility (Cetiol B oil comprising ionic liquid, 21 °C, oil or lipid, Oil/IL 80/20 weight ratio, IL N-ethyl-N′-methylimidazolium dibutylphosphate, read-out: Solubility of fluxapyroxad with Cetiol ® B as oil): 31.1 mg/mL | solubility (Cetiol B oil comprising ionic liquid, 21 °C, oil or lipid, Oil/IL 80/20 weight ratio, IL N-ethyl-N′-methylimidazolium heptanoate, read-out: Solubility of fluxapyroxad with Cetiol ® B as oil): 35.9 mg/mL | solubility (Cetiol B oil comprising ionic liquid, 21 °C, oil or lipid, Oil/IL 80/20 weight ratio, IL N-ethyl-N′-methylimidazolium octanoate, read-out: Solubility of fluxapyroxad with Cetiol ® B as oil): 34.3 mg/mL | solubility (Cetiol B oil comprising ionic liquid, 21 °C, oil or lipid, Oil/IL 80/20 weight ratio, IL N-propyl-N′-propylimidazolium acetate, read-out: Solubility of fluxapyroxad with Cetiol ® B as oil): 35.4 mg/mL | solubility (Cetiol B oil comprising ionic liquid, 21 °C, oil or lipid, Oil/IL 80/20 weight ratio, IL Tetrabutylammonium [2-(2-methoxyethoxy)ethoxy]acetate, read-out: Solubility of fluxapyroxad with Cetiol ® B as oil): 27.5 mg/mL | solubility (Cetiol B oil comprising ionic liquid, 21 °C, oil or lipid, Oil/IL 90/10 weight ratio, IL N-butyl-N′-methylimidazolium acetate, read-out: Solubility of fluxapyroxad with Cetiol ® B as oil): 23.7 mg/mL | solubility (Cetiol B oil comprising ionic liquid, 21 °C, oil or lipid, Oil/IL 90/10 weight ratio, IL N-ethyl-N′-ethylimidazolium propionate, read-out: Solubility of fluxapyroxad with Cetiol ® B as oil): 24.2 mg/mL | solubility (Cetiol B oil comprising ionic liquid, 21 °C, oil or lipid, Oil/IL 90/10 weight ratio, IL N-ethyl-N′-methylimidazolium acetate, read-out: Solubility of fluxapyroxad with Cetiol ® B as oil): 25.6 mg/mL | solubility (Cetiol B oil comprising ionic liquid, 21 °C, oil or lipid, Oil/IL 90/10 weight ratio, IL Tetrabutylammonium [2-(2-methoxyethoxy)ethoxy]acetate, read-out: Solubility of fluxapyroxad with Cetiol ® B as oil): 16 mg/mL | solubility (Cetiol B oil without ionic liquid, 21 °C, oil or lipid, 100 Oil (Cetiol B, no IL), read-out: Solubility of fluxapyroxad with Cetiol ® B as oil): 3 mg/mL (≈ 7.87 mM) | solubility (neat Agnique AMD 12 (N,N-dimethyldodecanamide) oil, 21 °C, oil or lipid, 100 Oil (Agnique AMD 12, no IL), read-out: Solubility of fluxapyroxad with Agnique AMD 12 ® (N,N-dimethyldodecanamide, lauryl N,N-dimethylamide) as oil): 21 mg/mL (≈ 55.1 mM) | solubility (neat N-butyl-N′-methylimidazolium acetate (ionic liquid), organic solvent or mixture, 100 IL (no oil), IL N-butyl-N′-methylimidazolium acetate, read-out: Solubility of fluxapyroxad with Agnique AMD 12 ® (N,N-dimethyldodecanamide, lauryl N,N-dimethylamide) as oil): 1 mg/mL (≈ 2.62 mM) | solubility (neat N-ethyl-N′-ethylimidazolium propionate (ionic liquid), 21 °C, organic solvent or mixture, 100 IL (no oil), IL N-ethyl-N′-ethylimidazolium propionate, read-out: Solubility of fluxapyroxad with Solvesso ® 200 ND as oil): 45.7 mg/mL (≈ 120 mM) | solubility (neat N-ethyl-N′-methylimidazolium acetate (ionic liquid), organic solvent or mixture, 100 IL (no oil), IL N-ethyl-N′-methylimidazolium acetate, read-out: Solubility of fluxapyroxad with Agnique AMD 12 ® (N,N-dimethyldodecanamide, lauryl N,N-dimethylamide) as oil): 1 mg/mL (≈ 2.62 mM) | solubility (neat Solvesso 200 ND (oil), 21 °C, oil or lipid, 100 Oil (Solvesso 200 ND, no IL), read-out: Solubility of fluxapyroxad with Solvesso ® 200 ND as oil): 1.5 mg/mL (≈ 3.93 mM) | solubility (neat cholinium octanoate (ionic liquid), 21 °C, organic solvent or mixture, 100 IL (no oil), IL Cholinium octanoate, read-out: Solubility of fluxapyroxad with Cetiol ® B as oil): 5 mg/mL (≈ 13.1 mM) | solubility (neat ionic liquid (no oil), 21 °C, organic solvent or mixture, 100 IL (no oil), IL N-butyl-N′-methylimidazolium acetate, read-out: Solubility of fluxapyroxad with Cetiol ® B as oil): 42.4 mg/mL (≈ 111 mM) | solubility (neat ionic liquid (no oil), 21 °C, organic solvent or mixture, 100 IL (no oil), IL N-butyl-N′-methylimidazolium dimethylphosphate, read-out: Solubility of fluxapyroxad with Cetiol ® B as oil): 5 mg/mL (≈ 13.1 mM) | solubility (neat ionic liquid (no oil), 21 °C, organic solvent or mixture, 100 IL (no oil), IL N-ethyl-N′-ethylimidazolium propionate, read-out: Solubility of fluxapyroxad with Cetiol ® B as oil): 45.7 mg/mL (≈ 120 mM) | solubility (neat ionic liquid (no oil), 21 °C, organic solvent or mixture, 100 IL (no oil), IL N-ethyl-N′-methylimidazolium acetate, read-out: Solubility of fluxapyroxad with Cetiol ® B as oil): 47.2 mg/mL (≈ 124 mM) | solubility (neat ionic liquid (no oil), 21 °C, organic solvent or mixture, 100 IL (no oil), IL N-ethyl-N′-methylimidazolium dibutylphosphate, read-out: Solubility of fluxapyroxad with Cetiol ® B as oil): 9.5 mg/mL (≈ 24.9 mM) | solubility (neat ionic liquid (no oil), 21 °C, organic solvent or mixture, 100 IL (no oil), IL N-ethyl-N′-methylimidazolium heptanoate, read-out: Solubility of fluxapyroxad with Cetiol ® B as oil): 26.9 mg/mL (≈ 70.5 mM) | solubility (neat ionic liquid (no oil), 21 °C, organic solvent or mixture, 100 IL (no oil), IL N-ethyl-N′-methylimidazolium octanoate, read-out: Solubility of fluxapyroxad with Cetiol ® B as oil): 20.8 mg/mL (≈ 54.5 mM) | solubility (neat ionic liquid (no oil), 21 °C, organic solvent or mixture, 100 IL (no oil), IL N-propyl-N′-propylimidazolium acetate, read-out: Solubility of fluxapyroxad with Cetiol ® B as oil): 36.7 mg/mL (≈ 96.2 mM) | solubility (neat ionic liquid (no oil), 21 °C, organic solvent or mixture, 100 IL (no oil), IL Tetrabutylammonium [2-(2-methoxyethoxy)ethoxy]acetate, read-out: Solubility of fluxapyroxad with Cetiol ® B as oil): 9.5 mg/mL (≈ 24.9 mM) | solubility (neat ionic liquid (no oil), organic solvent or mixture, 100 IL (no oil), IL N-ethyl-N′-methylimidazolium isononanoate, read-out: Solubility of fluxapyroxad with Agnique AMD 12 ® (N,N-dimethyldodecanamide, lauryl N,N-dimethylamide) as oil): 9.5 mg/mL (≈ 24.9 mM) | solubility (oil or lipid, Oil/IL 90/10 weight ratio, IL N-butyl-N′-methylimidazolium acetate, read-out: Solubility of fluxapyroxad with Agnique AMD 12 ® (N,N-dimethyldodecanamide, lauryl N,N-dimethylamide) as oil): 36 mg/mL | solubility (oil/ionic liquid mixture, oil or lipid, Oil/IL 90/10 weight ratio, IL N-ethyl-N′-methylimidazolium isononanoate, read-out: Solubility of fluxapyroxad with Agnique AMD 12 ® (N,N-dimethyldodecanamide, lauryl N,N-dimethylamide) as oil): 32 mg/mL | solubility (organic solvent or mixture, 100 IL (no oil), IL Tetrabutylammonium [2-(2-methoxyethoxy)ethoxy]acetate, read-out: Solubility of fluxapyroxad with Agnique AMD 12 ® (N,N-dimethyldodecanamide, lauryl N,N-dimethylamide) as oil): 9.5 mg/mL (≈ 24.9 mM)
SMILES: Cn1cc(C(=O)Nc2ccccc2-c2cc(F)c(F)c(F)c2)c(C(F)F)n1 [fluxapyroxad, 3-(difluoromethyl)-1-methyl-N-(3′,4′,5′-trifluorobiphenyl-2-yl)pyrazole-4-carboxamide]
